Key:
Assay in all cases: relative viability (nuclei count vs DMSO), 5 days (fraction); higher = more cells survive
ABC-1 = system: ABC-1
Procedure, shortened: (§1)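 Medians of duplicate plates are given as relative viability. That measure is the nuclei count in treated wells divided by the count in vehicle wells. Counts were taken on 4× images of lung cancer cell lines in 1536-well plates, 5 days after pin-tool dosing the day after seeding with one drug alone or a fixed anchor-drug dose plus five library-drug doses (not always all listed) in √10 steps.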

CAL-12T = system: CAL-12T
Procedure, shortened: as §1

COR-L23 = system: COR-L23
Procedure, shortened: as §1

EKVX = system: EKVX
Procedure, shortened: as §1

H3255 = system: H3255
Procedure, shortened: as §1

HCC-15 = system: HCC-15
Procedure, shortened: as §1

HCC-827 = system: HCC-827
Procedure, shortened: as §1

LK-2 = system: LK-2
Procedure, shortened: as §1

NCI-H1355 = system: NCI-H1355
Procedure, shortened: as §1

NCI-H1437 = system: NCI-H1437
Procedure, shortened: as §1

NCI-H1563 = system: NCI-H1563
Procedure, shortened: as §1

NCI-H1650 = system: NCI-H1650
Procedure, shortened: as §1

NCI-H1651 = system: NCI-H1651
Procedure, shortened: as §1

NCI-H1734 = system: NCI-H1734
Procedure, shortened: as §1

NCI-H2228 = system: NCI-H2228
Procedure, shortened: as §1

NCI-H2405 = system: NCI-H2405
Procedure, shortened: as §1

NCI-H322M = system: NCI-H322M
Procedure, shortened: as §1

NCI-H520 = system: NCI-H520
Procedure, shortened: as §1

NCI-H661 = system: NCI-H661
Procedure, shortened: as §1

PC-14 = system: PC-14
Procedure, shortened: as §1

PC-3 [JPC-3] = system: PC-3 [JPC-3]
Procedure, shortened: as §1

RERF-LC-KJ = system: RERF-LC-KJ
Procedure, shortened: as §1

SK-MES-1 = system: SK-MES-1
Procedure, shortened: as §1

SW 1573 = system: SW 1573
Procedure, shortened: as §1

COc1cc(N2CCC(C(N)=O)CC2)ccc1Nc1nc(N)c(Cl)c(Nc2ccccc2S(=O)(=O)C(C)C)n1 [HG-5-88-01] + CS(=O)(=O)CCNCc1ccc(-c2ccc3ncnc(Nc4ccc(OCc5cccc(F)c5)c(Cl)c4)c3c2)o1 [Lapatinib] (partner 2 µM)
relative viability (ABC-1; first compound 0.04 µM): 1.2 | relative viability (ABC-1; first compound 0.1265 µM): 1.12 | relative viability (ABC-1; first compound 0.4 µM): 0.996 | relative viability (ABC-1; first compound 1.265 µM): 0.624 | relative viability (ABC-1; first compound 4 µM): 1.32 | relative viability (CAL-12T; first compound 0.04 µM): 0.618 | relative viability (CAL-12T; first compound 0.1265 µM): 0.698 | relative viability (CAL-12T; first compound 0.4 µM): 0.641 | relative viability (CAL-12T; first compound 1.265 µM): 0.32 | relative viability (CAL-12T; first compound 4 µM): 0.359 | relative viability (COR-L23; first compound 0.04 µM): 0.998 | relative viability (COR-L23; first compound 0.1265 µM): 1.07 | relative viability (COR-L23; first compound 0.4 µM): 0.957 | relative viability (COR-L23; first compound 1.265 µM): 0.921 | relative viability (COR-L23; first compound 4 µM): 0.629 | relative viability (EKVX; first compound 0.04 µM): 0.212 | relative viability (EKVX; first compound 0.1265 µM): 0.215 | relative viability (EKVX; first compound 0.4 µM): 0.184 | relative viability (EKVX; first compound 4 µM): 0.15 | relative viability (H3255; first compound 0.04 µM): 0.25 | relative viability (H3255; first compound 0.1265 µM): 0.249 | relative viability (H3255; first compound 0.4 µM): 0.244 | relative viability (H3255; first compound 4 µM): 0.212 | relative viability (HCC-15; first compound 0.04 µM): 0.878 | relative viability (HCC-15; first compound 0.1265 µM): 0.83 | relative viability (HCC-15; first compound 0.4 µM): 0.792 | relative viability (HCC-15; first compound 1.265 µM): 0.894 | relative viability (HCC-15; first compound 4 µM): 0.449 | relative viability (HCC-827; first compound 0.04 µM): 0.202 | relative viability (HCC-827; first compound 0.1265 µM): 0.211 | relative viability (HCC-827; first compound 0.4 µM): 0.17 | relative viability (HCC-827; first compound 1.265 µM): 0.197 | relative viability (HCC-827; first compound 4 µM): 0.17 | relative viability (LK-2; first compound 0.04 µM): 0.94 | relative viability (LK-2; first compound 0.1265 µM): 0.841 | relative viability (LK-2; first compound 0.4 µM): 0.792 | relative viability (LK-2; first compound 1.265 µM): 0.42 | relative viability (LK-2; first compound 4 µM): 0.885 | relative viability (NCI-H1355; first compound 0.04 µM): 1.08 | relative viability (NCI-H1355; first compound 0.1265 µM): 1.04 | relative viability (NCI-H1355; first compound 0.4 µM): 0.832 | relative viability (NCI-H1355; first compound 1.265 µM): 0.917 | relative viability (NCI-H1355; first compound 4 µM): 0.623 | relative viability (NCI-H1437; first compound 0.04 µM): 0.8 | relative viability (NCI-H1437; first compound 0.1265 µM): 0.945 | relative viability (NCI-H1437; first compound 0.4 µM): 0.756 | relative viability (NCI-H1437; first compound 1.265 µM): 0.761 | relative viability (NCI-H1437; first compound 4 µM): 0.454 | relative viability (NCI-H1563; first compound 0.04 µM): 0.872 | relative viability (NCI-H1563; first compound 0.1265 µM): 0.941 | relative viability (NCI-H1563; first compound 0.4 µM): 1.03 | relative viability (NCI-H1563; first compound 1.265 µM): 0.882 | relative viability (NCI-H1563; first compound 4 µM): 1.24 | relative viability (NCI-H1650; first compound 0.04 µM): 0.785 | relative viability (NCI-H1650; first compound 0.1265 µM): 0.869 | relative viability (NCI-H1650; first compound 0.4 µM): 0.928 | relative viability (NCI-H1650; first compound 1.265 µM): 0.799 | relative viability (NCI-H1650; first compound 4 µM): 0.29 | relative viability (NCI-H1651; first compound 0.04 µM): 0.955 | relative viability (NCI-H1651; first compound 0.1265 µM): 1 | relative viability (NCI-H1651; first compound 0.4 µM): 0.796 | relative viability (NCI-H1651; first compound 1.265 µM): 0.863 | relative viability (NCI-H1651; first compound 4 µM): 0.882 | relative viability (NCI-H1734; first compound 0.04 µM): 1 | relative viability (NCI-H1734; first compound 0.1265 µM): 1.08 | relative viability (NCI-H1734; first compound 0.4 µM): 1.02 | relative viability (NCI-H1734; first compound 1.265 µM): 0.982 | relative viability (NCI-H1734; first compound 4 µM): 0.969 | relative viability (NCI-H2228; first compound 0.04 µM): 0.322 | relative viability (NCI-H2228; first compound 0.1265 µM): 0.264 | relative viability (NCI-H2228; first compound 0.4 µM): 0.394 | relative viability (NCI-H2228; first compound 1.265 µM): 0.409 | relative viability (NCI-H2228; first compound 4 µM): 0.356 | relative viability (NCI-H2405; first compound 0.04 µM): 1.25 | relative viability (NCI-H2405; first compound 0.1265 µM): 1.14 | relative viability (NCI-H2405; first compound 0.4 µM): 0.992 | relative viability (NCI-H2405; first compound 1.265 µM): 0.894 | relative viability (NCI-H2405; first compound 4 µM): 0.865 | relative viability (NCI-H322M; first compound 0.04 µM): 0.583 | relative viability (NCI-H322M; first compound 0.1265 µM): 0.428 | relative viability (NCI-H322M; first compound 0.4 µM): 0.492 | relative viability (NCI-H322M; first compound 1.265 µM): 0.501 | relative viability (NCI-H322M; first compound 4 µM): 0.485 | relative viability (NCI-H520; first compound 0.04 µM): 0.825 | relative viability (NCI-H520; first compound 0.1265 µM): 0.896 | relative viability (NCI-H520; first compound 0.4 µM): 0.401 | relative viability (NCI-H520; first compound 1.265 µM): 0.813 | relative viability (NCI-H520; first compound 4 µM): 0.795 | relative viability (NCI-H661; first compound 0.04 µM): 0.505 | relative viability (NCI-H661; first compound 0.1265 µM): 0.518 | relative viability (NCI-H661; first compound 0.4 µM): 0.487 | relative viability (NCI-H661; first compound 4 µM): 0.542 | relative viability (PC-14; first compound 0.04 µM): 0.358 | relative viability (PC-14; first compound 0.1265 µM): 0.307 | relative viability (PC-14; first compound 0.4 µM): 0.242 | relative viability (PC-14; first compound 1.265 µM): 0.267 | relative viability (PC-14; first compound 4 µM): 0.25 | relative viability (PC-3 [JPC-3]; first compound 0.04 µM): 0.408 | relative viability (PC-3 [JPC-3]; first compound 0.1265 µM): 0.466 | relative viability (PC-3 [JPC-3]; first compound 0.4 µM): 0.39 | relative viability (PC-3 [JPC-3]; first compound 1.265 µM): 0.434 | relative viability (PC-3 [JPC-3]; first compound 4 µM): 0.25 | relative viability (RERF-LC-KJ; first compound 0.04 µM): 0.833 | relative viability (RERF-LC-KJ; first compound 0.1265 µM): 0.774 | relative viability (RERF-LC-KJ; first compound 0.4 µM): 0.826 | relative viability (RERF-LC-KJ; first compound 1.265 µM): 0.876 | relative viability (RERF-LC-KJ; first compound 4 µM): 0.839 | relative viability (SK-MES-1; first compound 0.04 µM): 0.442 | relative viability (SK-MES-1; first compound 0.1265 µM): 0.453 | relative viability (SK-MES-1; first compound 0.4 µM): 0.407 | relative viability (SK-MES-1; first compound 1.265 µM): 0.477 | relative viability (SK-MES-1; first compound 4 µM): 0.469 | relative viability (SW 1573; first compound 0.04 µM): 1.12 | relative viability (SW 1573; first compound 0.1265 µM): 0.86 | relative viability (SW 1573; first compound 0.4 µM): 0.989 | relative viability (SW 1573; first compound 1.265 µM): 1.06 | relative viability (SW 1573; first compound 4 µM): 1.04

Reference: the supplement of paper PMC10307832
